According to US20240425484A1, “INHIBITORS OF TYK2” (Atomwise Inc., priority 2023, published 2024):

The compounds below were run against T1, TYK2-JH2 (Homo sapiens, UniProt P29597) (assay: TYK2-JH2 HTRF binding assay (ligand efficiency)). Settings: calculated (Equation 1) from IC50 of the TYK-JH2 binding assay.
T1 construct: TYK JH2 enzyme mix (ChemPartner: CP20210818A-BV); purchased ChemPartner CP20210818A-BV
Method: The following example describes the TYK2-JH2 HTRF binding assay used to determine the ligand efficiency of the TYK2 inhibitors.
To calculate ligand efficiency, Equation 1 is applied: […]
in which IC50 comes from the binding assay used to determine compound potency.
TYK JH2 enzyme mix (ChemPartner: CP20210818A-BV), tracer (ChemPartner: CP-0029472-051) and mAb Anti-6HIS Tb cryptate Gold (Cisbio: Cat No. 61HI2TLA) mix were prepared in assay buffer (10 mM MgCl2, 20 mM HEPES pH 7.5, 0.01% Triton X-100, 1 mM DTT). Compounds diluted in DMSO (Final Concentrations 0.1 to 0.000005 [μM]) and enzyme mix (0.5 nM Final Concentration) were added to 384 well plates, briefly centrifuged and incubated at room temperature for 10 minutes. After incubation, tracer mix (Tracer-35 nM final concentration); (MAb Anti-6HIS Tb cryptate Gold-0.5X final)) was added, briefly centrifuged then incubate at room temperature 60 minutes. After incubation, plates were read by Envision TR-FRET (Ex340/Em495/520) protocol (PerkinElmer-Envision 2104 multilabel plate reader).

T1 sequence (P29597 589-875 limits assumed): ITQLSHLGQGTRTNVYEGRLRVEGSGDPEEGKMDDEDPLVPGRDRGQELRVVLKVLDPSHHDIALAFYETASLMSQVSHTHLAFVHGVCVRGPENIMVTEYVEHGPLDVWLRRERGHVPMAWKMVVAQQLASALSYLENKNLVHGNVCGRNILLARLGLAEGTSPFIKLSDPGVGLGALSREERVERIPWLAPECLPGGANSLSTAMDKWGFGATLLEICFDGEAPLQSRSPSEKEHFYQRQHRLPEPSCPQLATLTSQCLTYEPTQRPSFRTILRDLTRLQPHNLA

Which “Ligand Efficiency” value does the source give for `CC(NC1COC1)c1ccc(Nc2cc(Nc3ccccc3S(C)(=O)=O)ncn2)nc1` (stereo in doubt) [Compound 40, (R)—N^4-(2-(methylsulfonyl)phenyl)-N^6-(5-(1-(oxetan-3-ylamino)ethyl)pyridin-2-yl)pyrimidine-4,6-diamine] here?
Its value is “††† (†††: >0.39)”.

How did the “Ligand Efficiency” value turn out when `Cc1ccnc(Nc2cc(Nc3ccccc3C(N)=O)ncn2)c1` [Compound 45, 2-((6-((4-methylpyridin-2-yl)amino)pyrimidin-4-yl)amino)benzamide] was run?
The value was “††† (†††: >0.39)”.

With `CS(=O)(=O)c1cccnc1Nc1cc(Nc2cccc(C(F)(F)F)n2)ncn1` [Compound 19, N^4-(3-(methylsulfonyl)pyridin-2-yl)-N^6-(6-(trifluoromethyl)pyridin-2-yl)pyrimidine-4,6-diamine] as the compound, how does the “Ligand Efficiency” value read?
Its value is “††† (†††: >0.39)”.

`COc1ccc(Nc2cc(NC(=O)C3CC3)ncn2)c(C(N)=O)c1` [Compound 70, 2-((6-(cyclopropanecarboxamido)pyrimidin-4-yl)amino)-5-methoxy benzamide] was tested. Which “Ligand Efficiency” value did it give?
Its value is “††† (†††: >0.39)”.

How did the “Ligand Efficiency” value turn out when `Cc1ccnc(Nc2cc(Nc3ccccc3P(C)(C)=O)ncn2)c1` [Compound 63, N^4-(2-(dimethylphosphoryl)phenyl)-N^6-(4-methylpyridin-2-yl)pyrimidine-4,6-diamine] was run?
The value was “††† (†††: >0.39)”.

`CS(=O)(=O)c1cccnc1Nc1cc(Nc2ccc(N3CCN(C4CC4)CC3)cn2)ncn1` [Compound 7, N^4-(5-(4-cyclopropylpiperazin-1-yl)pyridin-2-yl)-N^6-(3-(methylsulfonyl)pyridin-2-yl)pyrimidine-4,6-diamine] was tested. Which “Ligand Efficiency” value did it give?
The value was “††† (†††: >0.39)”.

`Cn1cc(-c2ccnc(Nc3cc(Nc4ccc(NC5(C)COC5)cn4)ncn3)c2S(C)(=O)=O)cn1` [Compound 72, N^4-(4-(1-methyl-1H-pyrazol-4-yl)-3-(methylsulfonyl)pyridin-2-yl)-N^6-(5-(3-methyloxetan-3-ylamino)pyridin-2-yl)pyrimidine-4,6-diamine] was tested. Which “Ligand Efficiency” value did it give?
Its value is “† (†: <0.37)”.

`CC(c1ccc(Nc2cc(Nc3ncc(C4COC4)cc3S(C)(=O)=O)ncn2)nc1)N1CC2(COC2)C1` (stereo not drawn) [Compound 78, N^4-(5-(1-(2-oxa-6-azaspiro[3.3]heptan-6-yl)ethyl)pyridin-2-yl)-N^6-(3-(methylsulfonyl)-5-(oxetan-3-yl)pyridin-2-yl)pyrimidine-4,6-diamine] was tested. Which “Ligand Efficiency” value did it give?
The value was “† (†: <0.37)”.

Which “Ligand Efficiency” value does the source give for `CC(NC1CC(F)(F)C1)c1ccc(Nc2cc(Nc3ncccc3S(C)(=O)=O)ncn2)nc1` (stereo not drawn) [Compound 35, N^4-(5-(1-(3,3-difluorocyclobutylamino)ethyl)pyridin-2-yl)-N^6-(3-(methylsulfonyl)pyridin-2-yl)pyrimidine-4,6-diamine] here?
Its value is “††† (†††: >0.39)”.

With `CC(c1ccc(Nc2cc(Nc3ncccc3S(C)(=O)=O)ncn2)nc1)N1CCCC1` (stereo in doubt) [Compound 15, (R)—N^4-(3-(methylsulfonyl)pyridin-2-yl)-N^6-(5-(1-(pyrrolidin-1-yl)ethyl)pyridin-2-yl)pyrimidine-4,6-diamine] as the compound, how does the “Ligand Efficiency” value read?
The value was “††† (†††: >0.39)”.

`Cc1cccc(Nc2cc(Nc3ccccc3S(C)(=O)=O)nc(C)n2)n1` [Compound 56, 2-methyl-N^4-(6-methylpyridin-2-yl)-N^6-(2-(methylsulfonyl)phenyl)pyrimidine-4,6-diamine] was tested. Which “Ligand Efficiency” value did it give?
The value was “† (†: <0.37)”.

Which “Ligand Efficiency” value does the source give for `CS(=O)(=O)c1ccccc1Nc1cc(Nc2ccc(N3CCOCC3)cn2)ncn1` [Compound 42, N^4-(2-(methylsulfonyl)phenyl)-N^6-(5-morpholinopyridin-2-yl)pyrimidine-4,6-diamine] here?
The value was “††† (†††: >0.39)”.

Which “Ligand Efficiency” value does the source give for `Cc1cncc(Nc2cc(Nc3ccccc3C(N)=O)ncn2)n1` [Compound 49, 2-(6-(6-methylpyrazin-2-ylamino)pyrimidin-4-ylamino)benzamide] here?
Its value is “††† (†††: >0.39)”.

How did the “Ligand Efficiency” value turn out when `COc1ccnc(Nc2cc(Nc3ccc(C(C)N4CC5(COC5)C4)cn3)ncn2)c1S(C)(=O)=O` (stereo not drawn) [Compound 76, N^4-(5-(1-(2-oxa-6-azaspiro[3.3]heptan-6-yl)ethyl)pyridin-2-yl)-N^6-(4-methoxy-3-(methylsulfonyl)pyridin-2-yl)pyrimidine-4,6-diamine] was run?
Its value is “† (†: <0.37)”.

With `Cn1ccc(Nc2cc(Nc3ccccc3S(C)(=O)=O)ncn2)n1` [Compound 66, N^4-(1-methyl-1H-pyrazol-3-yl)-N^6-(2-(methylsulfonyl)phenyl)pyrimidine-4,6-diamine] as the compound, how does the “Ligand Efficiency” value read?
Its value is “††† (†††: >0.39)”.

`Cn1ccc(Nc2cc(Nc3ccccc3C(N)=O)ncn2)n1` [Compound 67, 2-((6-((1-methyl-1H-pyrazol-3-yl)amino)pyrimidin-4-yl)amino)benzamide] was tested. Which “Ligand Efficiency” value did it give?
Its value is “††† (†††: >0.39)”.

With `Cc1cccc(Nc2cc(Nc3ncccc3CS(C)(=O)=O)ncn2)n1` [Compound 71, N^4-(6-methylpyridin-2-yl)-N^6-(3-((methylsulfonyl)methyl)pyridin-2-yl)pyrimidine-4,6-diamine] as the compound, how does the “Ligand Efficiency” value read?
Its value is “††† (†††: >0.39)”.

For `CC(c1ccc(Nc2cc(Nc3ncccc3S(C)(=O)=O)ncn2)nc1)N1CC(F)C1` (stereo not drawn) [Compound 22, N^4-(5-(1-(3-fluoroazetidin-1-yl)ethyl)pyridin-2-yl)-N^6-(3-(methylsulfonyl)pyridin-2-yl)pyrimidine-4,6-diamine], which “Ligand Efficiency” value is on record?
The value was “††† (†††: >0.39)”.

`C[C@H]1COCCN1c1ccc(Nc2cc(Nc3ccccc3S(C)(=O)=O)ncn2)nc1` [Compound 54, (S)—N^4-(5-(3-methylmorpholino)pyridin-2-yl)-N^6-(2-(methylsulfonyl)phenyl)pyrimidine-4,6-diamine] was tested. Which “Ligand Efficiency” value did it give?
Its value is “† (†: <0.37)”.

`Cc1cccc(Nc2cc(Nc3ccncc3C(N)=O)ncn2)n1` [Compound 51, 4-((6-((6-methylpyridin-2-yl)amino)pyrimidin-4-yl)amino) nicotinamide] was tested. Which “Ligand Efficiency” value did it give?
The value was “††† (†††: >0.39)”.

`Cc1nccc(Nc2cc(Nc3ccccc3C(N)=O)ncn2)n1` [Compound 48, 2-((6-((2-methylpyrimidin-4-yl)amino)pyrimidin-4-yl)amino)benzamide] was tested. Which “Ligand Efficiency” value did it give?
The value was “††† (†††: >0.39)”.

With `Cc1cccnc1Nc1cc(Nc2ccccc2C(N)=O)ncn1` [Compound 68, 2-((6-((3-methylpyridin-2-yl)amino)pyrimidin-4-yl)amino)benzamide] as the compound, how does the “Ligand Efficiency” value read?
Its value is “††† (†††: >0.39)”.

Which “Ligand Efficiency” value does the source give for `CS(=O)(=O)c1ccccc1Nc1cc(NC(=O)C2CC2)ncn1` [Compound 69, N^4-(cyclopropylcarbonyl)-N^6-(2-(methylsulfonyl)phenyl)pyrimidine-4,6-diamine] here?
The value was “††† (†††: >0.39)”.

How did the “Ligand Efficiency” value turn out when `CS(=O)(=O)c1cccnc1Nc1cc(Nc2ncccc2F)ncn1` [Compound 64, N^4-(3-fluoropyridin-2-yl)-N^6-(3-(methylsulfonyl)pyridin-2-yl)pyrimidine-4,6-diamine] was run?
Its value is “††† (†††: >0.39)”.

Which “Ligand Efficiency” value does the source give for `Cc1cc(Nc2cc(Nc3ncccc3S(C)(=O)=O)ncn2)ncc1NC1(C)COC1` [Compound 23, N^4-(4-methyl-5-((3-methyloxetan-3-yl)amino)pyridin-2-yl)-N^6-(3-(methylsulfonyl)pyridin-2-yl)pyrimidine-4,6-diamine] here?
The value was “††† (†††: >0.39)”.

`CC1(Nc2cnc(Nc3cc(Nc4ncccc4S(C)(=O)=O)ncn3)cn2)COC1` [Compound 74, N^4-(5-(3-methyloxetan-3-ylamino)pyrazin-2-yl)-N^6-(3-(methylsulfonyl)pyridin-2-yl)pyrimidine-4,6-diamine] was tested. Which “Ligand Efficiency” value did it give?
The value was “††† (†††: >0.39)”.

`CC(c1ccc(Nc2cc(Nc3ncccc3S(C)(=O)=O)ncn2)nc1)N1CC2(CC(F)C2)C1` (stereo in doubt) [Compound 10, N^4-(5-((1R)-1-(6-fluoro-2-azaspiro[3.3]heptan-2-yl)ethyl)pyridin-2-yl)-N^6-(3-(methylsulfonyl)pyridin-2-yl)pyrimidine-4,6-diamine] was tested. Which “Ligand Efficiency” value did it give?
The value was “††† (†††: >0.39)”.

How did the “Ligand Efficiency” value turn out when `CS(=O)(=O)c1cccnc1Nc1cc(Nc2ccc(C(=O)NC3CC(F)(F)C3)cn2)ncn1` [Compound 38, N-(3,3-difluorocyclobutyl)-6-(6-(3-(methylsulfonyl)pyridine-2-ylamino)pyrimidin-4-ylamino) nicotinamide] was run?
Its value is “††† (†††: >0.39)”.

`C[C@@H](c1ccc(Nc2cc(Nc3ncccc3S(C)(=O)=O)ncn2)nc1)N1C[C@H]2COC[C@H]2C1` [Compound 25, N^4-(3-(methylsulfonyl)pyridin-2-yl)-N^6-(5-(1-((3aR,6aS)-tetrahydro-1H-furo[3,4-c]pyrrol-5 (3H)-yl)ethyl)pyridin-2-yl)pyrimidine-4,6-diamine] was tested. Which “Ligand Efficiency” value did it give?
Its value is “††† (†††: >0.39)”.

With `Cc1cccc(Nc2cc(Nc3cccnc3S(C)(=O)=O)ncn2)n1` [Compound 59, N^4-(6-methylpyridin-2-yl)-N^6-(2-(methylsulfonyl)pyridin-3-yl)pyrimidine-4,6-diamine] as the compound, how does the “Ligand Efficiency” value read?
The value was “††† (†††: >0.39)”.

`Cc1cccc(Nc2cc(Nc3ncccc3C(N)=O)ncn2)n1` [Compound 52, 2-((6-((6-methylpyridin-2-yl)amino)pyrimidin-4-yl)amino) nicotinamide] was tested. Which “Ligand Efficiency” value did it give?
The value was “††† (†††: >0.39)”.

With `CC1(Nc2ccc(Nc3cc(Nc4ncccc4S(C)(=N)=O)ncn3)nc2)COC1` (stereo not drawn) [Compound 73, N^4-(5-((3-methyloxetan-3-yl)amino)pyridin-2-yl)-N^6-(3-(S-methylsulfonimidoyl)pyridin-2-yl)pyrimidine-4,6-diamine] as the compound, how does the “Ligand Efficiency” value read?
The value was “††† (†††: >0.39)”.

How did the “Ligand Efficiency” value turn out when `Cc1cccc(Nc2cc(Nc3cnccc3C(N)=O)ncn2)n1` [Compound 61, 3-((6-((6-methylpyridin-2-yl)amino)pyrimidin-4-yl)amino) isonicotinamide] was run?
Its value is “††† (†††: >0.39)”.
